Data on 27 compounds can be found in patent US11661403B2, “Oxadiazole compounds” (Vivace Therapeutics, Inc., priority 2018, dated 2023).

Each structure is given as a SMILES string. pIC50: −log10 of the molar value. Where only a bound is given, the exact number is not on record here.

For the first experiment, the system named is 8XTBD luciferase reporter (YAP) in HEK293T cells. As to the kind of experiment: YAP Reporter Assay. The experiment is classed as cell-based. The following applies: Homo sapiens, HEK-293T, 24 h, read-out: Firefly Luciferase IC50 (μM).
One may read the IC50 as the concentration at which inhibition is half-maximal. In the case of `O=C1N[C@@H](c2nnc(-c3ccccc3Nc3ccc(C(F)(F)F)cc3)o2)CO1` [Compound 77, (R)-4-(5-(2-((4-(trifluoromethyl)phenyl)amino)phenyl)-1,3,4-oxadiazol-2-yl)oxazolidin-2-one], the 50% inhibitory concentration (IC50) is below 0.1 µM.
Still for that read-out and setting: next, `O=C1N[C@H](c2nnc(-c3ccccc3Nc3ccc(C(F)(F)F)cc3)o2)CO1` [Compound 78, (S)-4-(5-(2-((4-(trifluoromethyl)phenyl)amino)phenyl)-1,3,4-oxadiazol-2-yl)oxazolidin-2-one]: 0.1 to 1 µM.

Still in this experiment, the particulars now being: Homo sapiens, HEK-293T; HEK293T cells stably transfected with 8XTBD luciferase reporter and pRLTK; 24-hr incubation; top concentration 3 μM; read-out: Firefly Luciferase IC50.
The term pIC50 denotes the IC50 on a negative log10 scale, so that one unit is a factor of ten. `FC(F)(F)c1ccc(Nc2ccccc2-c2nnc(-c3nn[nH]n3)o2)cc1` [Compound 48, 2-[5-(2H-tetrazol-5-yl)-1,3,4-oxadiazol-2-yl]-N-[4-(trifluoromethyl)phenyl]aniline]: the pIC50 was 5.30 to 6.00.
Take `O=c1[nH]c(-c2nnc(-c3ccccc3Nc3ccc(C(F)(F)F)cc3)o2)no1` [Compound 50, 3-[5-[2-[4-(trifluoromethyl)anilino]phenyl]-1,3,4-oxadiazol-2-yl]-4H-1,2,4-oxadiazol-5-one]: the negative-log IC50 (pIC50) is 5.30 to 6.00.
The same measure, in the same setting: next, `OC(c1nnc(-c2ccccc2Nc2ccc(C(F)(F)F)cc2)o1)C(F)(F)F` (stereo not drawn) [Compound 51, 2,2,2-trifluoro-1-(5-(2-((4-(trifluoromethyl)phenyl)amino)phenyl)-1,3,4-oxadiazol-2-yl)ethanol]: above 7.00; `OC1(c2nnc(-c3ccccc3Nc3ccc(C(F)(F)F)cc3)o2)CCCC1` [Compound 52, 1-(5-(2-((4-(trifluoromethyl)phenyl)amino)phenyl)-1,3,4-oxadiazol-2-yl)cyclo pentanol]: above 7.00.
Same read-out and setting: to `Cc1ccc(S(=O)(=O)OC2(c3nnc(-c4ccccc4Nc4ccc(C(F)(F)F)cc4)o3)CC2)cc1` [Compound 53, 1-(5-(2-((4-(trifluoromethyl)phenyl)amino)phenyl)-1,3,4-oxadiazol-2-yl)cyclo propyl 4-methylbenzenesulfonate] belongs 6.00 to 7.00; to `OC1(c2nnc(-c3ccccc3Nc3ccc(C(F)(F)F)cc3)o2)COC1` [Compound 55, 3-(5-(2-((4-(trifluoromethyl)phenyl)amino)phenyl)-1,3,4-oxadiazol-2-yl)oxetan-3-ol], above 7.00; to `OC1(c2nnc(-c3ccccc3Nc3ccc(C(F)(F)F)cc3)o2)CCOC1` (stereo not drawn) [Compound 56, 3-(5-(2-((4-(trifluoromethyl)phenyl)amino)phenyl)-1,3,4-oxadiazol-2-yl)tetra hydrofuran-3-ol], above 7.00.
With `CC(C)(C)OC(=O)NC1(c2nnc(-c3ccccc3Nc3ccc(C(F)(F)F)cc3)o2)CC1` [Compound 57, Tert-Butyl (1-(5-(2-((4-(trifluoromethyl)phenyl)amino)phenyl)-1,3,4-oxadiazol-2-yl)cyclopropyl)carbamate], the negative-log IC50 (pIC50) was 6.00 to 7.00.
In the case of `NC1(c2nnc(-c3ccccc3Nc3ccc(C(F)(F)F)cc3)o2)CC1` [Compound 58, 2-(5-(1-aminocyclopropyl)-1,3,4-oxadiazol-2-yl)-N-(4-(trifluoromethyl)phenyl) aniline], the pIC50 was 6.00 to 7.00.
For `OC(c1nnc(-c2ccccc2Nc2ccc(C(F)(F)F)cc2)o1)C(F)F` (stereo not drawn) [Compound 60, 2,2-difluoro-1-(5-(2-((4-(trifluoromethyl)phenyl)amino)phenyl)-1,3,4-oxadiazol-2-yl)ethanol], the pIC50 was above 7.00.
The same measure, in the same setting: to `NC(=O)NC1(c2nnc(-c3ccccc3Nc3ccc(C(F)(F)F)cc3)o2)CC1` [Compound 62, 1-(1-(5-(2-((4-(trifluoromethyl)phenyl)amino)phenyl)-1,3,4-oxadiazol-2-yl)cyclopropyl)urea] belongs 6.00 to 7.00; to `FC(F)(F)c1ccc(Nc2ccccc2-c2nnc(C3(F)CC3)o2)cc1` [Compound 63, 2-(5-(1-fluorocyclopropyl)-1,3,4-oxadiazol-2-yl)-N-(4-(trifluoromethyl)phenyl) aniline], 5.30 to 6.00; to `COC1(c2nnc(-c3ccccc3Nc3ccc(C(F)(F)F)cc3)o2)CC1` [Compound 67, 2-(5-(1-methoxycyclopropyl)-1,3,4-oxadiazol-2-yl)-N-(4-(trifluoromethyl)phenyl) aniline], above 7.00.
Same read-out and setting: next, `C#CC(C)(C)c1nnc(-c2ccccc2Nc2ccc(C(F)(F)F)cc2)o1` [Compound 68, 2-(5-(2-methylbut-3-yn-2-yl)-1,3,4-oxadiazol-2-yl)-N-(4-(trifluoromethyl)phenyl)aniline]: above 7.00; `C#CC(C)Oc1nnc(-c2ccccc2Nc2ccc(C(F)(F)F)cc2)o1` (stereo not drawn) [Compound 69, 2-(5-(but-3-yn-2-yloxy)-1,3,4-oxadiazol-2-yl)-N-(4-(trifluoromethyl)phenyl)aniline]: above 7.00; `CS(=O)(=O)c1nnc(-c2ccccc2Nc2ccc(C(F)(F)F)cc2)o1` [Compound 71, 2-(5-(methylsulfonyl)-1,3,4-oxadiazol-2-yl)-N-(4-(trifluoromethyl)phenyl)aniline]: 6.00 to 7.00.
The same measure, in the same setting: to `CSc1nnc(-c2ccccc2Nc2ccc(C(F)(F)F)cc2)o1` [Compound 72, 2-(5-(methylthio)-1,3,4-oxadiazol-2-yl)-N-(4-(trifluoromethyl)phenyl)aniline] belongs 6.00 to 7.00; to `COc1nnc(-c2ccccc2Nc2ccc(C(F)(F)F)cc2)o1` [Compound 73, 2-(5-methoxy-1,3,4-oxadiazol-2-yl)-N-(4-(trifluoromethyl)phenyl)aniline], above 7.00.
As to `C[C@@]1(c2nnc(-c3ccccc3Nc3ccc(C(F)(F)F)cc3)o2)CCNC1=O` [Compound 75, (S)-3-methyl-3-(5-(2-((4-(trifluoromethyl)phenyl)amino)phenyl)-1,3,4-oxadiazol-2-yl)pyrrolidin-2-one], the pIC50 was above 7.00.
Turning to `C[C@]1(c2nnc(-c3ccccc3Nc3ccc(C(F)(F)F)cc3)o2)CCNC1=O` [Compound 76, (R)-3-methyl-3-(5-(2-((4-(trifluoromethyl)phenyl)amino)phenyl)-1,3,4-oxadiazol-2-yl)pyrrolidin-2-one], the negative logarithm of the IC50 (pIC50) is above 7.00.

The same experiment, now with this note: Homo sapiens, HEK-293T; […]; 24-hr incubation; top concentration 3 μM; read-out: Firefly Luciferase IC50.
Consider `OC(c1nnc(-c2ccccc2Nc2ccc(C(F)(F)F)cc2)o1)C1CC1` (stereo not drawn) [Compound 49, cyclopropyl(5-(2-((4-(trifluoromethyl)phenyl)amino)phenyl)-1,3,4-oxadiazol-2-yl)methanol], for which the negative logarithm of the IC50 (pIC50) is above 7.00.
For the compound `OC1(c2nnc(-c3ccccc3Nc3ccc(C(F)(F)F)cc3)o2)CCC1` [Compound 54, 1-(5-(2-((4-(trifluoromethyl)phenyl)amino)phenyl)-1,3,4-oxadiazol-2-yl)cyclo butanol], the negative-log IC50 (pIC50) was above 7.00.
Regarding `CC(=O)NC1(c2nnc(-c3ccccc3Nc3ccc(C(F)(F)F)cc3)o2)CC1` [Compound 59, N-(1-(5-(2-((4-(trifluoromethyl)phenyl)amino)phenyl)-1,3,4-oxadiazol-2-yl)cyclopropyl)acetamide], the pIC50 is 6.00 to 7.00.
Still for that read-out and setting: next, `CS(=O)(=O)C1(c2nnc(-c3ccccc3Nc3ccc(C(F)(F)F)cc3)o2)CC1` [Compound 66, 2-[5-(1-methylsulfonylcyclopropyl)-1,3,4-oxadiazol-2-yl]-N-[4-(trifluoromethyl)phenyl]aniline]: above 7.00.
In the case of `CC#CCOc1nnc(-c2ccccc2Nc2ccc(C(F)(F)F)cc2)o1` [Compound 70, 2-(5-(but-2-yn-1-yloxy)-1,3,4-oxadiazol-2-yl)-N-(4-(trifluoromethyl)phenyl)aniline], the pIC50 is 5.30 to 6.00.
